Laboratory results reported in the NIST ThermoML archive (doi:10.1016/j.jct.2016.02.027).
Numbers after ± are expanded uncertainties.

Tests used:
[1] = 298.15 K; 101.33 kPa; Liquid; Vibrating tube method
[2] = xn = mol fraction of the nth substance listed; conditions: 298.15 K, 101.3 kPa, Liquid, Vibrating tube method

With `CCCC[N+]1(C)CCCC1.O=S(=O)([N-]S(=O)(=O)C(F)(F)F)C(F)(F)F` the mass density [1] was 1394.68 ± 6 kg/m3.

Work on `CCCC[N+]1(C)CCCC1.O=S(=O)([N-]S(=O)(=O)C(F)(F)F)C(F)(F)F` + CCCCCCCC yielded a mass density ([2]; x2 = 0.042) of 1384.07 ± 4.5 kg/m3.

In the case of `CCCC[N+]1(C)CCCC1.O=S(=O)([N-]S(=O)(=O)C(F)(F)F)C(F)(F)F` + CCCCCCCCCC, the mass density ([2]; x2 = 0.023) is reported as 1387.66 ± 4.5 kg/m3.

`CCCC[N+]1(C)CCCC1.O=S(=O)([N-]S(=O)(=O)C(F)(F)F)C(F)(F)F` + c1ccccc1 gave a mass density ([2]; x2 = 0.81) of 1117.76 ± 4.3 kg/m3 and a mass density ([2]; x2 = 0.811) of 1118.57 ± 4.3 kg/m3.
